Experimental findings from ChEMBL document CHEMBL3045655, “Use of structure-based virtual screening in the investigation of novel human sialidase inhibitors” (Med Chem Res, 2010) are described below.

Test [1] has as its target T1, Sialidase-3 (Homo sapiens, UniProt Q9UQ49).
T1 sequence (Q9UQ49 whole entry): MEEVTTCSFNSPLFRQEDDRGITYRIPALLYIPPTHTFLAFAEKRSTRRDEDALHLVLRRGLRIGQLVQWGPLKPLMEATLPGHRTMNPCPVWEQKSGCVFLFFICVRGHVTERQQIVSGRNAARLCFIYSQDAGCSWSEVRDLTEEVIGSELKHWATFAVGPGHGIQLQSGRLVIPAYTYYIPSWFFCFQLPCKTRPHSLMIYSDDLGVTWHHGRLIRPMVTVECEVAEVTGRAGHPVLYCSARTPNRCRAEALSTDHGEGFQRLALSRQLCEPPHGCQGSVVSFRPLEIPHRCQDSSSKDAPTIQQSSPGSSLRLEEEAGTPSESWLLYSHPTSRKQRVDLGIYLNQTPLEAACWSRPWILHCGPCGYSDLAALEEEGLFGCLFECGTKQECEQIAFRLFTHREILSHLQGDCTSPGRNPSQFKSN
The test can be described thus: Inhibition of Homo sapiens (human) NEU3 expressed in HEK293 cells using mixed ganglioside as substrate after 10 to 30 min by fluorometric analysis. The test is classed as cell-based.

The target of test [2] is T2, Sialidase-4 (Homo sapiens) (UniProt Q8WWR8).
T2 sequence (whole entry): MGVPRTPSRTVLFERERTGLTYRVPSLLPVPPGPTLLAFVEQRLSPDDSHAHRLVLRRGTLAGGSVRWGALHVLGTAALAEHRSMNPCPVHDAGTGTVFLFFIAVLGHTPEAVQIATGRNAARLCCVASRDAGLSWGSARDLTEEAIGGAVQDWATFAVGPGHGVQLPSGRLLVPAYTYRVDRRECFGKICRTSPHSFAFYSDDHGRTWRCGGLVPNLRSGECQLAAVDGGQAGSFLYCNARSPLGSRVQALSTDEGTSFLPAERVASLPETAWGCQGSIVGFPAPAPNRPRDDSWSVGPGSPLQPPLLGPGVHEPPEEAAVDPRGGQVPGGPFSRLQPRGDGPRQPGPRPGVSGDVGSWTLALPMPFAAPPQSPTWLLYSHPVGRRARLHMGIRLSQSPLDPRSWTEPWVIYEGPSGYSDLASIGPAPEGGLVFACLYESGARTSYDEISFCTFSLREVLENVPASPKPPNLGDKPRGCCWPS
The test can be described thus: Inhibition of Homo sapiens (human) NEU4 expressed in HEK293 cells using 4MU-NeuAc as substrate at 1 mM after 10 to 30 min by fluorometric analysis.

Test [3] addresses T3, Sialidase-3 (Homo sapiens) (UniProt Q9UQ49).
T3 sequence (whole entry): T1 sequence (Q9UQ49 whole entry)
Description: Inhibition of Homo sapiens (human) NEU3 expressed in HEK293 cells using mixed ganglioside as substrate at 1 mM after 10 to 30 min by fluorometric analysis. The format is cell-based.

The target in test [4] is Sialidase-1 (Homo sapiens) (UniProt Q99519). The test can be described thus: Inhibition of Homo sapiens (human) NEU1 expressed in HEK293 cells using 4MU-NeuAc as substrate at 1 mM after 10 to 30 min by fluorometric analysis. The format is cell-based.
In test [5] the target is T4, Sialidase-4 (Homo sapiens, UniProt Q8WWR8).
T4 sequence (Q8WWR8 whole entry): T2 sequence (whole entry)
The test can be described thus: Inhibition of Homo sapiens (human) NEU4 expressed in HEK293 cells using 4MU-NeuAc as substrate after 10 to 30 min by fluorometric analysis. The format is cell-based.

The target in test [6] is Sialidase-2 (Homo sapiens) (UniProt Q9Y3R4). Particulars: HEK293, 1 mM.
Sialidase-2 (Homo sapiens), sequence (Q9Y3R4 whole entry): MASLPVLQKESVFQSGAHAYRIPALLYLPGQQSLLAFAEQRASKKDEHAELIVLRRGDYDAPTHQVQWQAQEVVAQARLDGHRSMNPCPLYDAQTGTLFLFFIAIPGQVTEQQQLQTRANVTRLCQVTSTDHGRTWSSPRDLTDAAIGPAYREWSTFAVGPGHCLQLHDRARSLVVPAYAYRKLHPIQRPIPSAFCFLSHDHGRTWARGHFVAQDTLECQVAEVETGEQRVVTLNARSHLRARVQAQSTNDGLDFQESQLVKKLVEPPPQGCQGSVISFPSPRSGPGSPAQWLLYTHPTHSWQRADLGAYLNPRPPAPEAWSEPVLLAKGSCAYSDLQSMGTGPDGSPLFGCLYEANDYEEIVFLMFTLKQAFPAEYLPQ
Description: Inhibition of Homo sapiens (human) NEU2 expressed in HEK293 cells using 4MU-NeuAc as substrate at 1 mM after 10 to 30 min by fluorometric analysis

Activity calls are given as the source filed them. The rule behind the calls is not given here.

A word on the IC50: it is the point on the concentration scale where inhibition reaches its midpoint. Broadly, the inhibition is the share of the control response that was lost under treatment.

In turn, `CC(=O)N[C@H]1[C@H]([C@@H](O)[C@@H](O)CO)OC(C(=O)O)=C[C@@H]1O` showed a half-inhibitory concentration (IC50) in test [1] of 60 µM.
Turning to `O=C(O)c1oc(C(=O)O)c(OCc2ccccc2)c1OCc1ccccc1`, the inhibition is 56% in test [2], 56% in test [3], 7% in test [4] and 40% in test [6]. The concentration for half-maximal inhibition (IC50) in test [5] turned out to be 670 µM; in test [1] it was 920 µM.
On to `CC(=O)Nc1cc(F)c(C(=O)O)cc1NC(=O)c1ccc(-c2ccccc2)cc1`, for which, in test [4], the inhibition result was “inactive”. In addition, the concentration for half-maximal inhibition (IC50) in test [5] and in test [1] was greater than 5000 µM in each case.
